# Test results taken from article PMC4644980, “The FDA-approved natural product dihydroergocristine reduces the production of the Alzheimer’s disease amyloid-β peptides” (Scientific Reports, 2015).
# Structures can show the parent of a compound that is named as a salt. Where a SMILES comes first, the peptide text is derived from it. The star is where a group is joined. Pyrrolidide = C1CCN(*)C1
# Experiments:
# [1] = system: hAPP cleavage by γ-secretase; assay: cleavage of APP-CTFs in HEK293 cells overexpressing hAPP; format: cell-based, human; conditions: 20 or 50 μM
# [2] = target: T1, purified γ-secretase (Homo sapiens, UniProt P49768+Q92542); assay: cell-free in vitro C100-Flag γ-secretase assay with purified enzyme; format: biochemical; conditions: for The potency of compound (in vitro C100 γ-secretase assay): 200 µM, compared with DHEC, estimated by densitometry; for inhibition of γ-secretase activity (C100-Flag cleavage): 200 μM; for inhibition of γ-secretase activity (C100-Flag cleavage) / IC50: purified γ-secretase; for IC50: AICD-Flag densitometry, read-out: IC50 in the in vitro γ-secretase activity assay (C100-Flag processing)
# T1 construct: made in house
# Text: The density of the AICD-Flag and Aβ total bands was quantified by Odyssey software (Supplementary data Fig. S5). […] The residue was then separated by Bicine/urea SDS-PAGE, together with an Aβ standard of synthetic human Aβ38, Aβ40 and Aβ42, followed by Western blot detection with anti-Aβ antibody (6E10, left panel), or quantification by ELISA (right panel). Black bars, Aβ [1–40]; gray bars, Aβ[1–42]. Data were presented as the means ± sd. […] The change in response units over time is shown. […]
# γ-Secretase was purified from S-20 cells as described previously. The recombinant APP-based protein substrate of γ-secretase, namely human C100-Flag, was overexpressed in E. coli and purified by using an anti-Flag M2 resin[31]. Full length human NCT was purified as described previously (for details, see Supplementary information)[32].
# Cell-free in vitro γ-secretase assays using the recombinant C100-Flag substrate and purified γ-secretase were performed as described in the Supplementary information.
# Aβ1-x peptides secreted in the cell media were quantitatively measured by ELISA (IBL, Gunma, Japan) according to the standard protocol from the manufacturer. Aβ40 and Aβ42 generated in the C100-Flag γ-secretase assays stopped with 0.5% SDS (final concentration) were quantified with the human Beta Amyloid or [1–42] colorimetric ELISA kit, respectively. […]
# γ-Secretase activity assays
# γ-Secretase purified from S-20 cells was solubilized in 0.2% (w/v) CHAPSO in 50 mM HEPES buffer (pH 7.0) containing of 150 mM NaCl, 5 mM MgCl2 and 5 mM CaCl2, and incubated with 0.1% (w/v) PC and 1 μM or otherwise indicated […]
# concentrations of substrate at 37 °C for 4 h, after which the enzymatic reactions were stopped by adding 0.5% SDS (final concentration). The samples were analyzed by Western Blot for AICD-Flag or Aβ. […]
SMILES,cleavage of APP-CTFs / accumulation of APP-CTFs [1],The potency of compound (in vitro C100 γ-secretase assay) [2],inhibition of γ-secretase activity (C100-Flag cleavage) [2],IC50 [2] [µM]
"CC(C)C[C@H]1C(=O)N2CCC[C@H]2[C@]2(O)O[C@](NC(=O)[C@@H]3C=C4c5cccc6[nH]c(Br)c(c56)C[C@H]4N(C)C3)(C(C)C)C(=O)N12 [2-Bromo-α-ergocryptine, 2-bromo-α-ergocryptine methanesulfonate salt]",inactive,+++,retained the ability to inhibit,~50
CC(=O)N[C@H](C(=O)N[C@@H](Cc1ccccc1)C(=O)N1CCCC1)C(C)C [AMBE] (Ac-Val-Phe-Pyrrolidide),,-,did not show any inhibitory activity,
"CC(C)C[C@H]1C(=O)N2CCC[C@H]2[C@]2(O)O[C@](NC(=O)OCc3ccccc3)(C(C)C)C(=O)N12 [CABA, [2R-(2α, 5α, 10aβ, 10bα)]-[Octahydro-10b-hydroxy-2-(1-methylethyl)-5-(2-methylpropyl)-3,6-dioxo-8H-oxazolo[3,2-a]pyrrolo[2,1-c]pyrazin-2-yl]-carbamic acid]",accumulation of APP-CTFs only when administered at a concentration of 50 μM,,,~100
"CN1C[C@H](C(=O)N[C@]2(C)O[C@@]3(O)[C@@H]4CCCN4C(=O)[C@H](Cc4ccccc4)N3C2=O)C[C@@H]2c3cccc4[nH]cc(c34)C[C@H]21 [Dihydro-ergotamine (DHE), dihydroergotamine methanesulfonate salt]",,-,did not inhibit,
"CN1C[C@H](C(=O)N[C@]2(C)O[C@@]3(O)[C@@H]4CCCN4C(=O)[C@H](Cc4ccccc4)N3C2=O)C=C2c3cccc4[nH]cc(c34)C[C@H]21 [Ergotamine, ergotamine tartrate]",,-,did not inhibit,
"CN1C[C@H](CNC(=O)OCc2ccccc2)C[C@@H]2c3cccc4c3c(cn4C)C[C@H]21 [Metergoline, metergoline]",,-,did not inhibit,
"CC[C@@H](CO)NC(=O)[C@@H]1C=C2c3cccc4[nH]cc(c34)C[C@H]2N(C)C1 [Methyl-ergometrine, methylergometrine]",,-,did not inhibit,
"CCCN1C[C@H](CSC)C[C@@H]2c3cccc4[nH]cc(c34)C[C@H]21 [Pergolide, pergolide mesylate salt]",,-,did not inhibit,
"CC(C)C[C@H]1C(=O)N2CCC[C@H]2[C@]2(O)O[C@](NC(=O)[C@@H]3C=C4c5cccc6[nH]cc(c56)C[C@H]4N(C)C3)(C(C)C)C(=O)N12 [α-Ergocryptine, α-ergocryptine]",,+++,inhibited,
"CCC(C)[C@H]1C(=O)N2CCC[C@H]2[C@]2(O)O[C@](NC(=O)[C@@H]3C[C@@H]4c5cccc6[nH]cc(c56)C[C@H]4N(C)C3)(C(C)C)C(=O)N12 (stereo partly drawn) [β-Dihydro-ergocryptine, β-Dihydroergocryptine]",,+,inhibited,
